Holding throughout (assay type): cell-based
For test [1], the system named is K. Pneumoniae A-651. In words: Bacterial growth minimal inhibitory concentration (broth microdilution, CLSI M7-A7). As to conditions: cation-adjusted Mueller Hinton Broth, multiply-resistant (quinolone-resistant) strain; for MIC: Klebsiella pneumoniae. The method, then: (§1) Minimal Inhibitory Concentrations (MICs; mg/L) were determined in cation-adjusted MuellerHinton Broth by a microdilution method following the description given in “Methods for Dilution Antimicrobial Susceptibility Tests for Bacteria that grow Aerobically”, Approved standard, 7th ed., Clinical and Laboratory Standards Institute (CLSI) Document M7-A7, Wayne, Pa., USA (2006).
(§2) All Example compounds were tested against several Gram-positive and Gram-negative bacteria. […] K pneumoniae A-651 is a multiply-resistant strain (in particular quinolone-resistant), while E. coli ATCC25922 and P. aeruginosa ATCC27853 are quinolone-sensitive strains.
(In general: In broth dilution the organism is exposed to a series of concentrations in liquid medium.)

For test [2], the system named is E. coli ATCC25922. Described as above. As to conditions: quinolone-sensitive strain; for MIC: Escherichia coli, ATCC25922, cation-adjusted Mueller Hinton Broth; for MIC for E. coli ATCC25922: cation-adjusted Mueller Hinton Broth. The method, then: as §1, §2
Test [3] concerns P. aeruginosa ATCC27853. The description is as above. The settings on record: quinolone-sensitive strain; for MIC: Pseudomonas aeruginosa, ATCC27853, cation-adjusted Mueller Hinton Broth; for MIC for P. aeruginosa ATCC27853: cation-adjusted Mueller Hinton Broth. The method, then: as §1, §2
Test [4] concerns wild-type E. coli A-1261. The test is described as follows: MIC with or without alkaline phosphatase or esterase (prodrug activation). As to conditions: Escherichia coli. The procedure:
Minimal Inhibitory Concentrations (MICs; mg/L) were determined in cation-adjusted MuellerHinton Broth by a microdilution method following the description given in “Methods for Dilution Antimicrobial Susceptibility Tests for Bacteria that grow Aerobically”, Approved standard, 7th ed., Clinical and Laboratory Standards Institute (CLSI) Document M7-A7, Wayne, Pa., USA (2006). The compounds of Examples 5 and 12 were tested against wild-type E. coli A-1261 in the absence of alkaline phosphatase or esterase, in the presence of an alkaline phosphatase, and in the presence of an esterase. The corresponding antibacterial test results are given in Table 2 hereafter (MICs in mg/L).

[5] abbreviates: alkaline phosphatase 2 i.U./mL, read-out: MIC for E. coli A-1261 In the presence of an alkaline phosphatase (2 i.U./mL).
Setting [6] is: esterase 10 i.U./mL, read-out: MIC for E. coli A-1261 In the presence of an esterase (10 i.U./mL).
The mark [7] stands for this setting: no alkaline phosphatase or esterase, read-out: MIC for E. coli A-1261 In the absence of alkaline phosphatase or esterase.

Values after ≈ are worked out from the molar mass of the structure shown. Like-named read-outs stand apart in the source and are kept apart here. Where only a bound is given, the exact number is not on record here.

As for `COc1ccc(-c2ccc3c(c2)oc(=O)n3CCC(C)(C(=O)NO)S(C)(=O)=O)c(F)c1` (racemic) [RE1, (2RS)-4-(6-(2-fluoro-4-methoxyphenyl)-2-oxobenzo[d]oxazol-3(2H)-yl)-N-hydroxy-2-methyl-2-(methylsulfonyl)butanamide], the MIC in test [1] is 1 µg/mL (≈ 2.21 µM); in test [2], 2 µg/mL (≈ 4.42 µM); in test [3], greater than 8 µg/mL.

As to `CC(CCn1c(=O)oc2cc(C#CC#CC3(O)COC3)ccc21)(C(=O)NO)S(C)(=O)=O` (racemic) [RE2, (2RS)—N-hydroxy-4-(6-((3-hydroxyoxetan-3-yl)buta-1,3-diyn-1-yl)-2-oxobenzo[d]oxazol-3(2H)-yl)-2-methyl-2-(methylsulfonyl)butanamide], the MIC in test [1] is 8 µg/mL (≈ 17.8 µM); in test [2], 4 µg/mL (≈ 8.92 µM); in test [3], greater than 8 µg/mL.

`C[C@@](CCn1c(=O)oc2cc(C#Cc3ccc(CO)cc3)ccc21)(C(=O)NO)S(C)(=O)=O` [Example 1]: the “MIC for K. Pneumoniae A-651” value in test [1] came to 0.5 µg/mL. Besides, the “MIC for E. coli ATCC25922” value in test [2] was found to be 0.25 µg/mL. Further, the “MIC for P. aeruginosa ATCC27853” value in test [3] stood at 4 µg/mL.

In the case of `C[C@@](CCn1c(=O)oc2cc(C#CC#CC3(CO)CC3)ccc21)(C(=O)NO)S(C)(=O)=O` [Example 2, (2R)—N-hydroxy-4-(6-((1-(hydroxymethyl)cyclopropyl)buta4,3-diyn-1-yl)-2-oxobenzo[d]oxazol-3(2H)-yl)-2-methyl-2-(methylsulfonyl)butanamide], the “MIC for K. Pneumoniae A-651” value in test [1] came to 1 µg/mL. Also, the “MIC for E. coli ATCC25922” value in test [2] came out at 0.25 µg/mL. In test [3], the “MIC for P. aeruginosa ATCC27853” value stood at 1 µg/mL.

For `C[C@@](CCn1c(=O)oc2cc(C#Cc3ccc(CN4CCOCC4)cc3)ccc21)(C(=O)NO)S(C)(=O)=O` [Example 3], the “MIC for K. Pneumoniae A-651” value in test [1] is 2 µg/mL. Besides, the “MIC for E. coli ATCC25922” value in test [2] was determined as 2 µg/mL. Also, the “MIC for P. aeruginosa ATCC27853” value in test [3] was greater than 8 µg/mL.

As to `CNC1(C#CC#Cc2ccc3c(c2)oc(=O)n3CC[C@](C)(C(=O)NO)S(C)(=O)=O)CC1` [Example 4, (2R)—N-hydroxy-2-methyl-4-(6-((1-(methylamino)cyclopropyl)buta-1,3-diyn-1-yl)-2-oxobenzo[d]oxazol-3(2H)-yl)-2-(methylsulfonyl)butanamide], the MIC in test [1] came out at 0.25 µg/mL (≈ 0.561 µM); in test [2], 0.25 µg/mL (≈ 0.561 µM); in test [3], 1 µg/mL (≈ 2.24 µM).

With `C[C@@](CCn1c(=O)oc2cc(C#CC#C[C@H]3C[C@@H]3CO)ccc21)(C(=O)NO)S(C)(=O)=O` [Example 5, (2R)—N-hydroxy-4-(6-(((1S,2S)-2-(hydroxymethyl)cyclopropyl)buta-1,3-diyn-1-yl)-2-oxobenzo[d]oxazol-3 (2H)-yl)-2-methyl-2-(methylsulfonyl)butanamide], the MIC was 0.125 µg/mL (≈ 0.28 µM) in test [1]; 0.063 µg/mL (≈ 0.141 µM) in test [2]; 0.5 µg/mL (≈ 1.12 µM) in test [3]; 0.063 µg/mL in test [4] (setting [5]); 0.063 µg/mL in test [4] (setting [6]); 0.063 µg/mL (≈ 0.141 µM) in test [4] (setting [7]).

On to `C[C@@](CCn1c(=O)oc2cc(C#CC#C[C@H]3C[C@]3(F)CO)ccc21)(C(=O)NO)S(C)(=O)=O` [Example 6, (2R)-4-(6-(((1R,2R)-2-fluoro-2-(hydroxymethyl)cyclopropyl)buta-1,3-diyn-1-yl)-2-oxobenzo[d]oxazol-3(2H)-yl)-N-hydroxy-2-methyl-2-(methylsulfonyl)butanamide], for which the MIC in test [1] is 0.25 µg/mL (≈ 0.538 µM); in test [2] it was 0.125 µg/mL (≈ 0.269 µM); in test [3], 0.5 µg/mL (≈ 1.08 µM).

Consider `C[C@@](CCn1c(=O)oc2cc(C#CC#CCOC(=O)N3CC(O)C3)ccc21)(C(=O)NO)S(C)(=O)=O` [Example 7, (3R)-5-(3-(4-(hydroxyamino)-3-methyl-3-(methylsulfonyl)-4-oxobutyl)-2-oxo-2,3-dihydrobenzo[d]oxazol-6-yl)penta-2,4-diyn-1-yl 3-hydroxyazetidine-1-carboxylate], for which the MIC in test [1] came out at 1 µg/mL (≈ 1.98 µM); in test [2], 0.5 µg/mL (≈ 0.989 µM); in test [3] it was 1 µg/mL (≈ 1.98 µM).

With `C[C@@](CCn1c(=O)oc2cc(C#CC#CC3(N)CC3)ccc21)(C(=O)NO)S(C)(=O)=O` [Example 8, (2R)-4-(6-((1-aminocyclopropyl)buta-1,3-diyn-1-yl)-2-oxobenzo[d]oxazol-3(2H)-yl)-N-hydroxy-2-methyl-2-(methylsulfonyl)butanamide], the MIC was 0.25 µg/mL (≈ 0.579 µM) in test [1], 0.125 µg/mL (≈ 0.29 µM) in test [2] and 1 µg/mL (≈ 2.32 µM) in test [3].

Regarding `CN1CC(C#CC#Cc2ccc3c(c2)oc(=O)n3CC[C@](C)(C(=O)NO)S(C)(=O)=O)C1` [Example 9, (2R)—N-hydroxy-2-methyl-4-(6-((1-methylazetidin-3-yl)buta-1,3-diyn-1-yl)-2-oxobenzo[d]oxazol-3(2H)-yl)-2-(methylsulfonyl)butanamide], the MIC in test [1] amounted to 0.5 µg/mL (≈ 1.12 µM); in test [2], 1 µg/mL (≈ 2.24 µM); in test [3], 1 µg/mL (≈ 2.24 µM).

Regarding `CN1CC(C#CC#Cc2ccc3c(c2)sc(=O)n3CC[C@](C)(C(=O)NO)S(C)(=O)=O)C1` [Example 10, (2R)—N-hydroxy-2-methyl-4-(6-((1-methylazetidin-3-yl)buta-1,3-diyn-1-yl)-2-oxobenzo[d]thiazol-3(2H)-yl)-2-(methylsulfonyl)butanamide], the MIC in test [1] was 1 µg/mL (≈ 2.17 µM); in test [2], 0.5 µg/mL (≈ 1.08 µM); in test [3], 2 µg/mL (≈ 4.33 µM).

As to `C[C@@](CCn1c(=O)sc2cc(C#CC#C[C@H]3C[C@]3(F)CO)ccc21)(C(=O)NO)S(C)(=O)=O` [Example 11, (2R)-4-(6-(((1R,2R)-2-fluoro-2-(hydroxymethyl)cyclopropyl)buta-1,3-diyn-1-yl)-2-oxobenzo[d]thiazol-3(2H)-yl)-N-hydroxy-2-methyl-2-(methylsulfonyl)butanamide], the MIC in test [1] is 0.25 µg/mL (≈ 0.52 µM); in test [2] it was 0.063 µg/mL (≈ 0.131 µM); in test [3], 1 µg/mL (≈ 2.08 µM).

Turning to `C[C@@](CCn1c(=O)oc2cc(C#CC#C[C@H]3C[C@@H]3COP(=O)(O)O)ccc21)(C(=O)NO)S(C)(=O)=O` [Example 12, ((1S,2S)-2-((3-((3R)-4-(hydroxyamino)-3-methyl-3-(methylsulfonyl)-4-oxobutyl)-2-oxo-2,3-dihydrobenzo[d]oxazol-6-yl)buta-1,3-diyn-1-yl)cyclopropyl)methyl dihydrogen phosphate], the values for the MIC in test [4] (setting [5]), in test [4] (setting [6]) and in test [4] (setting [7]) were 0.125 µg/mL, greater than 8 µg/mL and greater than 8 µg/mL, respectively.

Take `C[C@@](CCn1c(=O)sc2cc(C#Cc3ccc(CO)cc3)ccc21)(C(=O)NO)S(C)(=O)=O` [Example 13]: the “MIC for K. Pneumoniae A-651” value in test [1] was found to be 0.5 µg/mL. The “MIC for E. coli ATCC25922” value in test [2] is 0.125 µg/mL. Besides, the “MIC for P. aeruginosa ATCC27853” value in test [3] worked out at 8 µg/mL.

The values above are taken from patent publication US20180251434A1, “ANTIBACTERIAL HETEROCYCLIC DERIVATIVES” (priority 2015, published 2018).
